Measurements reported in US6737383B1, “Herbicidal oxadiazolidines” (priority 1999, dated 2004).

Legend:
wheat = assay: Test B pre/postemergence wheat; type: in vivo, Triticum aestivum
Summary of the method: (§1)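 Response is a visual 0-to-10 score relative to untreated plants, where 0 means no effect and 10 means complete control, taken twelve to sixteen days after application. Treatments went onto soil at planting and onto foliage of 1- to 4-leaf plants, using a surfactant-containing non-phytotoxic solvent.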

crabgrass = assay: Test B pre/postemergence crabgrass; type: in vivo, Digitaria sanguinalis
Summary of the method: as §1

blackgrass = assay: Test B pre/postemergence blackgrass; type: in vivo, Alopecurus myosuroides
Summary of the method: as §1

morningglory = assay: Test B pre/postemergence morningglory; type: in vivo, Ipomoea hederacea
Summary of the method: as §1

rape = assay: Test B pre/postemergence rape; type: in vivo, Brassica napus
Summary of the method: as §1

velvetleaf = assay: Test B pre/postemergence velvetleaf; type: in vivo, Abutilon theophrasti
Summary of the method: as §1

purple nutsedge = assay: Test B pre/postemergence purple nutsedge; type: in vivo, Cyperus rotundus
Summary of the method: as §1

pigweed = assay: Test B pre/postemergence pigweed; type: in vivo, Amaranthus retroflexus
Summary of the method: as §1

sugar beet = assay: Test B pre/postemergence sugar beet; type: in vivo, Beta vulgaris
Summary of the method: as §1

wild oat = assay: Test B pre/postemergence wild oat; type: in vivo, Avena fatua
Summary of the method: as §1

surinam grass = assay: Test B pre/postemergence surinam grass; type: in vivo, Brachiaria decumbens
Summary of the method: as §1

bedstraw = assay: Test B pre/postemergence bedstraw; type: in vivo, Galium aparine
Summary of the method: as §1

soybean = assay: Test B pre/postemergence soybean; type: in vivo, Glycine max
Summary of the method: as §1

giant foxtail = assay: Test B pre/postemergence giant foxtail; type: in vivo, Setaria faberii
Summary of the method: as §1

corn = assay: Test B pre/postemergence corn; type: in vivo, Zea mays
Summary of the method: as §1

cocklebur = assay: Test B pre/postemergence cocklebur; type: in vivo, Xanthium strumarium
Summary of the method: as §1

[1] = Postemergence, Rate 62 g/ha, scale 0 to 10, 0 is no effect, 10 is complete control
[2] = Postemergence, Rate 500 g/ha, scale 0 (no effect) to 10 (complete control)
[3] = Rate 62 g/ha, Preemergence, scale 0 to 10
[4] = Rate 125 g/ha, Preemergence, scale 0 to 10 (0 no effect, 10 complete control)
[5] = Rate 250 g/ha, Postemergence, scale 0 to 10, 0 is no effect, 10 is complete control
[6] = Rate 500 g/ha, Preemergence, scale 0 to 10 (0 no effect, 10 complete control)
[7] = Preemergence, Rate 250 g/ha, scale 0 (no effect) to 10 (complete control)
[8] = Postemergence, Rate 125 g/ha, scale of 0 to 10 where 0 is no effect and 10 is complete control

CON=CC(C)n1c(=O)on(C(=O)N(c2ccccc2)C(C)C)c1=O (centres unmarked) [Compound 790]
Plant response rating, Wheat (wheat; [1]): 2 | Wheat plant response rating (wheat; [2]): 5 | Wheat plant response rating (wheat; [3]): 0 | Wheat plant response rating (wheat; [4]): 2 | Wheat plant response rating (wheat; [5]): 4 | Wheat plant response rating (wheat; [6]): 9 | Plant response rating, Crabgrass (crabgrass; [1]): 9 | Crabgrass plant response rating (crabgrass; [2]): 9 | Crabgrass plant response rating (crabgrass; [7]): 10 | Crabgrass plant response rating (crabgrass; [3]): 10 | Crabgrass plant response rating (crabgrass; [4]): 10 | Crabgrass plant response rating (crabgrass; [5]): 9 | Crabgrass plant response rating (crabgrass; [6]): 10 | Plant response rating, Blackgrass (blackgrass; [1]): 4 | Blackgrass plant response rating (blackgrass; [8]): 5 | Blackgrass plant response rating (blackgrass; [2]): 5 | Blackgrass plant response rating (blackgrass; [7]): 9 | Blackgrass plant response rating (blackgrass; [3]): 8 | Blackgrass plant response rating (blackgrass; [4]): 9 | Blackgrass plant response rating (blackgrass; [5]): 5 | Blackgrass plant response rating (blackgrass; [6]): 10 | Plant response rating, Morningglory (morningglory; [1]): 2 | Morningglory plant response rating (morningglory; [8]): 4 | Morningglory plant response rating (morningglory; [2]): 10 | Morningglory plant response rating (morningglory; [3]): 0 | Morningglory plant response rating (morningglory; [4]): 0 | Morningglory plant response rating (morningglory; [5]): 7 | Morningglory plant response rating (morningglory; [6]): 7 | Plant response rating, Rape (rape; [1]): 0 | Rape plant response rating (rape; [8]): 0 | Rape plant response rating (rape; [2]): 3 | Rape plant response rating (rape; [3]): 2 | Rape plant response rating (rape; [4]): 4 | Rape plant response rating (rape; [5]): 3 | Rape plant response rating (rape; [6]): 8 | Plant response rating, Velvetleaf (velvetleaf; [1]): 4 | Velvetleaf plant response rating (velvetleaf; [2]): 7 | Velvetleaf plant response rating (velvetleaf; [3]): 0 | Velvetleaf plant response rating (velvetleaf; [4]): 2 | Velvetleaf plant response rating (velvetleaf; [5]): 5 | Velvetleaf plant response rating (velvetleaf; [6]): 7 | Plant response rating, Nutsedge (purple nutsedge; [1]): 0 | Nutsedge plant response rating (purple nutsedge; [8]): 0 | Nutsedge plant response rating (purple nutsedge; [2]): 7 | Nutsedge plant response rating (purple nutsedge; [3]): 0 | Nutsedge plant response rating (purple nutsedge; [4]): 0 | Nutsedge plant response rating (purple nutsedge; [5]): 5 | Nutsedge plant response rating (purple nutsedge; [6]): 0 | Plant response rating, Redroot pigweed (pigweed; [1]): 0 | Redroot pigweed plant response rating (pigweed; [8]): 5 | Redroot pigweed plant response rating (pigweed; [2]): 5 | Redroot pigweed plant response rating (pigweed; [3]): 2 | Redroot pigweed plant response rating (pigweed; [4]): 6 | Redroot pigweed plant response rating (pigweed; [5]): 5 | Redroot pigweed plant response rating (pigweed; [6]): 10 | Plant response rating, Sugarbeets (sugar beet; [1]): 0 | Sugarbeets plant response rating (sugar beet; [2]): 7 | Sugarbeets plant response rating (sugar beet; [3]): 1 | Sugarbeets plant response rating (sugar beet; [4]): 2 | Sugarbeets plant response rating (sugar beet; [5]): 0 | Sugarbeets plant response rating (sugar beet; [6]): 7 | Plant response rating, Wild oats (wild oat; [1]): 0 | Wild oats plant response rating (wild oat; [2]): 3 | Wild oats plant response rating (wild oat; [3]): 0 | Wild oats plant response rating (wild oat; [4]): 6 | Wild oats plant response rating (wild oat; [5]): 0 | Wild oats plant response rating (wild oat; [6]): 10 | Plant response rating, B. signalgrass (surinam grass; [1]): 2 | B. signalgrass plant response rating (surinam grass; [8]): 6 | B. signalgrass plant response rating (surinam grass; [7]): 9 | B. signalgrass plant response rating (surinam grass; Rate 62 g/ha, Preemergence, scale 0 (no effect) to 10 (complete control)): 8 | B. signalgrass plant response rating (surinam grass; [4]): 9 | B. signalgrass plant response rating (surinam grass; [5]): 7 | B. signalgrass plant response rating (surinam grass; Rate 500 g/ha, Postemergence, scale 0 to 10, 0 is no effect, 10 is complete control): 7 | B. signalgrass plant response rating (surinam grass; [6]): 9 | Plant response rating, Bedstraw (bedstraw; [1]): 0 | Bedstraw plant response rating (bedstraw; [8]): 0 | Bedstraw plant response rating (bedstraw; [2]): 5 | Bedstraw plant response rating (bedstraw; [7]): 7 | Bedstraw plant response rating (bedstraw; [3]): 0 | Bedstraw plant response rating (bedstraw; [4]): 3 | Bedstraw plant response rating (bedstraw; [5]): 0 | Bedstraw plant response rating (bedstraw; [6]): 9 | Plant response rating, Soybean (soybean; [1]): 2 | Soybean plant response rating (soybean; [2]): 4 | Soybean plant response rating (soybean; [3]): 0 | Soybean plant response rating (soybean; [4]): 0 | Soybean plant response rating (soybean; [5]): 4 | Soybean plant response rating (soybean; [6]): 2 | Plant response rating, Giant foxtail (giant foxtail; [1]): 9 | Giant foxtail plant response rating (giant foxtail; [8]): 9 | Giant foxtail plant response rating (giant foxtail; [2]): 8 | Giant foxtail plant response rating (giant foxtail; [7]): lo | Giant foxtail plant response rating (giant foxtail; [3]): 10 | Giant foxtail plant response rating (giant foxtail; [4]): 10 | Giant foxtail plant response rating (giant foxtail; [5]): 8 | Giant foxtail plant response rating (giant foxtail; [6]): 10 | Plant response rating, Corn (corn; [1]): 0 | Corn plant response rating (corn; [8]): 2 | Corn plant response rating (corn; [2]): 4 | Corn plant response rating (corn; [7]): 8 | Corn plant response rating (corn; [3]): 2 | Corn plant response rating (corn; [4]): 7 | Corn plant response rating (corn; [5]): 4 | Corn plant response rating (corn; [6]): 9 | Plant response rating, Cocklebur (cocklebur; [1]): 0 | Cocklebur plant response rating (cocklebur; [8]): 0 | Cocklebur plant response rating (cocklebur; [2]): 0 | Cocklebur plant response rating (cocklebur; [7]): 10 | Cocklebur plant response rating (cocklebur; [3]): 0 | Cocklebur plant response rating (cocklebur; [4]): 0 | Cocklebur plant response rating (cocklebur; [5]): 0 | Cocklebur plant response rating (cocklebur; [6]): 10
